Assay results as given in patent US11178873B2, “Cyclic N-carboxamide compounds useful as herbicides” (FMC CORPORATION, priority 2015, dated 2021).

Legend:
Type in all cases: in vivo
kochia (Kochia scoparia) [1] = test: Test A preemergence, kochia; conditions: 0 to 100 scale, 0 no effect, 100 complete control
Text: (§1) Seeds of plant species selected from barnyardgrass (Echinochloa crus-galli), crabgrass, large (large crabgrass, Digitaria sanguinalis), kochia (Kochia scoparia), ragweed (common ragweed, Ambrosia elatior), morningglory (Ipomoea spp.), velvetleaf (Abutilon theophrasti), ryegrass, Italian (Italian ryegrass, Lolium multiflorum), foxtail, giant (giant foxtail, Setaria faberii), wheat (Triticum aestivum), corn (Zea mays), and pigweed (Amaranthus retroflexus), were planted into a blend of loam soil and sand and treated preemergence with a directed soil spray using test chemicals formulated in a non-phytotoxic solvent mixture which included a surfactant. At the same time, plants selected from these crop and weed species and also blackgrass (Alopecurus myosuroides), and galium (catchweed bedstraw, Galium aparine), were planted in pots containing the same blend of loam soil and sand and treated with postemergence applications of test chemicals formulated in the same manner. Plants ranged in height from 2 to 10 cm and were in the one- to two-leaf stage for the postemergence treatment. Treated plants and untreated controls were maintained in a greenhouse for approximately 10 d, after which time all treated plants were compared to untreated controls and visually evaluated for injury. Plant response ratings, summarized in Table A, are based on a 0 to 100 scale where 0 is no effect and 100 is complete control. A dash (-) response means no test result.

[2] = test system: barnyardgrass (Echinochloa crus-galli); test: Test A preemergence, barnyardgrass; conditions: 0 to 100 scale, 0 no effect, 100 complete control
Text: as §1

[3] = test system: sedge, umbrella (small-flower umbrella sedge, Cyperus difformis); test: Test B flooded paddy test, sedge, umbrella; conditions: Flood, 500 g ai/ha; scale 0 to 100 (0 no effect, 100 complete control); 13 to 15 d
Experimental: (§2) Plant species in the flooded paddy test selected from rice (Oryza sativa), sedge, umbrella (small-flower umbrella sedge, Cyperus difformis), ducksalad (Heteranthera limosa), and barnyardgrass (Echinochloa crus-galli) were grown to the 2-leaf stage for testing. At time of treatment, test pots were flooded to 3 cm above the soil surface, treated by application of test compounds directly to the paddy water, and then maintained at that water depth for the duration of the test. Treated plants and controls were maintained in a greenhouse for 13 to 15 d, after which time all species were compared to controls and visually evaluated. Plant response ratings, summarized in Table B, are based on a scale of 0 to 100 where 0 is no effect and 100 is complete control. A dash (-) response means no test result.

[4] = test system: foxtail, giant (giant foxtail, Setaria faberii); test: Test A preemergence, foxtail, giant; conditions: 0 to 100 scale, 0 no effect, 100 complete control
Text: as §1

[5] = test system: ducksalad (Heteranthera limosa); test: Test B flooded paddy test, ducksalad; conditions: Flood, 500 g ai/ha; scale 0 to 100 (0 no effect, 100 complete control); 13 to 15 d
Experimental: as §2

kochia (Kochia scoparia) [6] = test: Test A postemergence, kochia; conditions: 0 to 100 scale, 0 no effect, 100 complete control
Text: as §1

[7] = test system: pigweed (Amaranthus retroflexus); test: Test A preemergence, pigweed; conditions: 0 to 100 scale, 0 no effect, 100 complete control
Text: as §1

[8] = test system: galium (catchweed bedstraw, Galium aparine); test: Test A postemergence, galium; conditions: 0 to 100 scale, 0 no effect, 100 complete control
Text: as §1

[9] = test system: ragweed (common ragweed, Ambrosia elatior); test: Test A postemergence, ragweed; conditions: 0 to 100 scale, 0 no effect, 100 complete control
Text: as §1

[10] = test system: barnyardgrass (Echinochloa crus-galli); test: Test A postemergence, barnyardgrass; conditions: 0 to 100 scale, 0 no effect, 100 complete control
Text: as §1

[11] = test system: barnyardgrass (Echinochloa crus-galli); test: Test B flooded paddy test, barnyardgrass; conditions: Flood, 500 g ai/ha; scale 0 to 100 (0 no effect, 100 complete control); 13 to 15 d
Experimental: as §2

[12] = test system: foxtail, giant (giant foxtail, Setaria faberii); test: Test A postemergence, foxtail, giant; conditions: 0 to 100 scale, 0 no effect, 100 complete control
Text: as §1

[13] = test system: ryegrass, Italian (Italian ryegrass, Lolium multiflorum); test: Test A postemergence, ryegrass, Italian; conditions: 0 to 100 scale, 0 no effect, 100 complete control
Text: as §1

[14] = test system: ryegrass, Italian (Italian ryegrass, Lolium multiflorum); test: Test A preemergence, ryegrass, Italian; conditions: 0 to 100 scale, 0 no effect, 100 complete control
Text: as §1

corn (Zea mays) = test: Test A postemergence, corn; conditions: 0 to 100 scale, 0 no effect, 100 complete control
Text: as §1

rice (Oryza sativa) = test: Test B flooded paddy test, rice; conditions: Flood, 500 g ai/ha; scale 0 to 100 (0 no effect, 100 complete control); 13 to 15 d
Experimental: as §2

[15] = test system: ragweed (common ragweed, Ambrosia elatior); test: Test A preemergence, ragweed; conditions: 0 to 100 scale, 0 no effect, 100 complete control
Text: as §1

[16] = test system: pigweed (Amaranthus retroflexus); test: Test A postemergence, pigweed; conditions: 0 to 100 scale, 0 no effect, 100 complete control
Text: as §1

[17] = test system: blackgrass (Alopecurus myosuroides); test: Test A postemergence, blackgrass; conditions: 0 to 100 scale, 0 no effect, 100 complete control
Text: as §1

[18] = test system: wheat (Triticum aestivum); test: Test A postemergence, wheat; conditions: 0 to 100 scale, 0 no effect, 100 complete control
Text: as §1

O=C1NCC(c2ccc(F)c(F)c2)N1C(=O)Nc1ccccc1Cl (stereo not shown) [Compound 9]
0: Plant response rating, Kochia (kochia (Kochia scoparia) [1]; 125 g ai/ha) | Plant response rating, Kochia (kochia (Kochia scoparia) [1]; 500 g ai/ha) | Plant response rating, Barnyardgrass ([2]; 125 g ai/ha) | Plant response rating, Barnyardgrass ([2]; 500 g ai/ha) | Plant response rating, Sedge, Umbrella [3] | Plant response rating, Foxtail, Giant ([4]; 125 g ai/ha) | Plant response rating, Foxtail, Giant ([4]; 500 g ai/ha) | Plant response rating, Ducksalad [5] | Plant response rating, Kochia (kochia (Kochia scoparia) [6]; 125 g ai/ha) | Plant response rating, Kochia (kochia (Kochia scoparia) [6]; 500 g ai/ha) | Plant response rating, Pigweed ([7]; 125 g ai/ha) | Plant response rating, Pigweed ([7]; 500 g ai/ha) | Plant response rating, Galium ([8]; 125 g ai/ha) | Plant response rating, Galium ([8]; 500 g ai/ha) | Plant response rating, Ragweed ([9]; 125 g ai/ha) | Plant response rating, Ragweed ([9]; 500 g ai/ha) | Plant response rating, Barnyardgrass ([10]; 125 g ai/ha) | Plant response rating, Barnyardgrass ([10]; 500 g ai/ha) | Plant response rating, Barnyardgrass [11] | Plant response rating, Foxtail, Giant ([12]; 125 g ai/ha) | Plant response rating, Foxtail, Giant ([12]; 500 g ai/ha) | Plant response rating, Ryegrass, Italian ([13]; 125 g ai/ha) | Plant response rating, Ryegrass, Italian ([13]; 500 g ai/ha) | Plant response rating, Ryegrass, Italian ([14]; 125 g ai/ha) | Plant response rating, Ryegrass, Italian ([14]; 500 g ai/ha) | Plant response rating, Corn (corn (Zea mays); 125 g ai/ha) | Plant response rating, Corn (corn (Zea mays); 500 g ai/ha) | Plant response rating, Rice (rice (Oryza sativa)) | Plant response rating, Ragweed ([15]; 125 g ai/ha) | Plant response rating, Ragweed ([15]; 500 g ai/ha) | Plant response rating, Pigweed ([16]; 125 g ai/ha) | Plant response rating, Pigweed ([16]; 500 g ai/ha) | Plant response rating, Blackgrass ([17]; 125 g ai/ha) | Plant response rating, Blackgrass ([17]; 500 g ai/ha) | Plant response rating, Wheat ([18]; 125 g ai/ha) | Plant response rating, Wheat ([18]; 500 g ai/ha)

Cc1ccc(C2CCC(=O)N2C(=O)Nc2ccc(F)c(F)c2F)cc1 (stereo not shown) [Compound 21]
20: Plant response rating, Barnyardgrass ([2]; 1000 g ai/ha)
70: Plant response rating, Foxtail, Giant ([4]; 1000 g ai/ha)
0: Plant response rating, Kochia (kochia (Kochia scoparia) [1]; 1000 g ai/ha) | Plant response rating, Kochia (kochia (Kochia scoparia) [6]; 1000 g ai/ha) | Plant response rating, Pigweed ([7]; 1000 g ai/ha) | Plant response rating, Galium ([8]; 1000 g ai/ha) | Plant response rating, Ragweed ([9]; 1000 g ai/ha) | Plant response rating, Barnyardgrass ([10]; 1000 g ai/ha) | Plant response rating, Foxtail, Giant ([12]; 1000 g ai/ha) | Plant response rating, Ryegrass, Italian ([13]; 1000 g ai/ha) | Plant response rating, Ryegrass, Italian ([14]; 1000 g ai/ha) | Plant response rating, Corn (corn (Zea mays); 1000 g ai/ha) | Plant response rating, Ragweed ([15]; 1000 g ai/ha) | Plant response rating, Pigweed ([16]; 1000 g ai/ha) | Plant response rating, Blackgrass ([17]; 1000 g ai/ha) | Plant response rating, Wheat ([18]; 1000 g ai/ha)

Cc1ccc(C2CCC(=O)N2C(=O)Nc2ccccc2C(F)(F)F)cc1 (stereo not shown) [Compound 20]
20: Plant response rating, Foxtail, Giant ([4]; 1000 g ai/ha)
0: Plant response rating, Kochia (kochia (Kochia scoparia) [1]; 1000 g ai/ha) | Plant response rating, Barnyardgrass ([2]; 1000 g ai/ha) | Plant response rating, Kochia (kochia (Kochia scoparia) [6]; 1000 g ai/ha) | Plant response rating, Pigweed ([7]; 1000 g ai/ha) | Plant response rating, Galium ([8]; 1000 g ai/ha) | Plant response rating, Ragweed ([9]; 1000 g ai/ha) | Plant response rating, Barnyardgrass ([10]; 1000 g ai/ha) | Plant response rating, Foxtail, Giant ([12]; 1000 g ai/ha) | Plant response rating, Ryegrass, Italian ([13]; 1000 g ai/ha) | Plant response rating, Ryegrass, Italian ([14]; 1000 g ai/ha) | Plant response rating, Corn (corn (Zea mays); 1000 g ai/ha) | Plant response rating, Ragweed ([15]; 1000 g ai/ha) | Plant response rating, Pigweed ([16]; 1000 g ai/ha) | Plant response rating, Blackgrass ([17]; 1000 g ai/ha) | Plant response rating, Wheat ([18]; 1000 g ai/ha)

CN1CC(c2ccc(C(F)(F)F)cc2)N(C(=O)Nc2cccc(F)c2F)C1=O (stereo not shown) [Compound 14]
70: Plant response rating, Foxtail, Giant ([4]; 1000 g ai/ha)
20: Plant response rating, Barnyardgrass ([2]; 1000 g ai/ha)
0: Plant response rating, Kochia (kochia (Kochia scoparia) [1]; 1000 g ai/ha) | Plant response rating, Kochia (kochia (Kochia scoparia) [6]; 1000 g ai/ha) | Plant response rating, Pigweed ([7]; 1000 g ai/ha) | Plant response rating, Galium ([8]; 1000 g ai/ha) | Plant response rating, Ragweed ([9]; 1000 g ai/ha) | Plant response rating, Barnyardgrass ([10]; 1000 g ai/ha) | Plant response rating, Foxtail, Giant ([12]; 1000 g ai/ha) | Plant response rating, Ryegrass, Italian ([13]; 1000 g ai/ha) | Plant response rating, Ryegrass, Italian ([14]; 1000 g ai/ha) | Plant response rating, Corn (corn (Zea mays); 1000 g ai/ha) | Plant response rating, Ragweed ([15]; 1000 g ai/ha) | Plant response rating, Pigweed ([16]; 1000 g ai/ha) | Plant response rating, Blackgrass ([17]; 1000 g ai/ha) | Plant response rating, Wheat ([18]; 1000 g ai/ha)

Cc1ccc(C2CCC(=O)N2C(=O)Nc2ccccc2F)cc1 (stereo not shown) [Compound 19]
20: Plant response rating, Kochia (kochia (Kochia scoparia) [1]; 1000 g ai/ha)
40: Plant response rating, Barnyardgrass ([2]; 1000 g ai/ha) | Plant response rating, Foxtail, Giant ([4]; 1000 g ai/ha)
70: Plant response rating, Pigweed ([7]; 1000 g ai/ha)
0: Plant response rating, Kochia (kochia (Kochia scoparia) [6]; 1000 g ai/ha) | Plant response rating, Galium ([8]; 1000 g ai/ha) | Plant response rating, Ragweed ([9]; 1000 g ai/ha) | Plant response rating, Barnyardgrass ([10]; 1000 g ai/ha) | Plant response rating, Foxtail, Giant ([12]; 1000 g ai/ha) | Plant response rating, Ryegrass, Italian ([13]; 1000 g ai/ha) | Plant response rating, Ryegrass, Italian ([14]; 1000 g ai/ha) | Plant response rating, Corn (corn (Zea mays); 1000 g ai/ha) | Plant response rating, Ragweed ([15]; 1000 g ai/ha) | Plant response rating, Pigweed ([16]; 1000 g ai/ha) | Plant response rating, Blackgrass ([17]; 1000 g ai/ha) | Plant response rating, Wheat ([18]; 1000 g ai/ha)
